US8440710B2, “HSL inhibitors useful in the treatment of diabetes” (Hoffmann-La Roche Inc., priority 2009, dated 2013)

Target: T1, human HSL (Homo sapiens, UniProt Q05469)
T1 construct: generate a full length human HSL ORF with a 3′-His6 tag; made in house; host or cells: High 5 insect cells (baculovirus, pFast-BAC)
T1 sequence (Q05469 1-1076): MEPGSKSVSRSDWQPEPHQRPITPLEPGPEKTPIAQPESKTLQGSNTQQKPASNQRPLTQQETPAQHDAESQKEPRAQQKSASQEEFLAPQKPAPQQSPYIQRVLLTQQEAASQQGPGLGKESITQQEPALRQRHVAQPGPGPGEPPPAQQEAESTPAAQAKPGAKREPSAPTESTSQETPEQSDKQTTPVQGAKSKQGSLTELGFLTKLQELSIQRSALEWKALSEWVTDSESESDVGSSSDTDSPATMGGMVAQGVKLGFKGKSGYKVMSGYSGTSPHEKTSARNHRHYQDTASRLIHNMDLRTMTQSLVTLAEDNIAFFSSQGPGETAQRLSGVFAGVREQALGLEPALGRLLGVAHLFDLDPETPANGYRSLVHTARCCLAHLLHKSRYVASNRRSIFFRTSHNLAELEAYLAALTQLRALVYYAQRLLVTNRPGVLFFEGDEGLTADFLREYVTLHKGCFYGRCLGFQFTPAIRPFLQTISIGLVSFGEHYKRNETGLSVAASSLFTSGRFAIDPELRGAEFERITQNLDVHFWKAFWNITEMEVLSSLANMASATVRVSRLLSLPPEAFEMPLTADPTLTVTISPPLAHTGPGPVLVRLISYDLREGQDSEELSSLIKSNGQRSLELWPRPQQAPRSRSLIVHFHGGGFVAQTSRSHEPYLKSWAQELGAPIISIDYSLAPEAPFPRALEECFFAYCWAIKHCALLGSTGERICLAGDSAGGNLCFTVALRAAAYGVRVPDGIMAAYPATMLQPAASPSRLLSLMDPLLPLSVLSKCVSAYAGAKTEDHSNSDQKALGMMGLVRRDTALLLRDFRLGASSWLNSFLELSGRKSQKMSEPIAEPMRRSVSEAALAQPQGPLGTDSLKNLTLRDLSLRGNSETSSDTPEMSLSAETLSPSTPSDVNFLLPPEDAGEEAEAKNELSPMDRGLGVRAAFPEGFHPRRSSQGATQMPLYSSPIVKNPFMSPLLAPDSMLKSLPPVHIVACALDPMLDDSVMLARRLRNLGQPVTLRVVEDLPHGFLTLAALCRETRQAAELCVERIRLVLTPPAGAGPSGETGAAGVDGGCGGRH
Experiment: Human Hormone-Sensitive Lipase (HSL) enzyme inhibition assay (colorimetric, DMPT substrate)
Format: biochemical
Conditions: human full length HSL-His6, 2,3-dimercapto-1-propanol tributyrate substrate, 37° C. 20 minutes, absorbance at 405 nm; read-out: HSL hum IC50
Experimental: Production of Human Full Length Hormone Sensitive Lipase-His^6:
1) Cloning: cDNA was prepared from commercial human brain polyA+ RNA and used as a template in overlapping PCR to generate a full length human HSL ORF with a 3′-His6 tag. This full length insert was cloned into the pFast-BAC vector and the DNA-sequence of several single clones was verified. DNA from a correct full length clone with the 3′His6 tag was used to transform the E. coli strain DH10BAC. Resulting bacmid DNA was used to generate a titered baculovirus stock for protein generation. The sequence of the encoded HSL conforms to Swissprot entry Q05469, with the additional C-terminal His6-tag. 2) Protein purification: Culture: 5.5 L, High 5 cells expressing human full length HSL-His^6, 48 hr., containing 25 μM E-64. Cell count: […], 90% viable. Cells were thawed. On ice, cells were suspended in Base Buffer containing 10% glycerol, 25 mM Tris-Cl, 300 mM NaCl, 10 mM imidazole, 10 mM 2-mercaptoethanol, 2 μg pepstatin/ml, 2 μg leupeptin/ml, 2 μg antipain/ml, pH 8.0 at 4° C. in a final volume of 475 ml with 3.75×10^7 cells/ml. […] was done at 3×30 sec., Lubrol PX was added to 0.2% final concentration followed by stirring for 15 min. at 4° C. and centrifugation at 25 k×g, 60 min., 4° C. Soluble proteins were mixed with 60 ml of pre-washed and equilibrated Ni-NTA Agarose (Qiagen 30210) followed by tumbling end-over-end, 45 min., 4° C., centrifugation 1000 rpm 5 min and letting resin settle 5 min. Supernatant was removed, the resin washed in the centrifuge vessel using 5 volumes of Base Buffer containing 0.2% Lubrol PX. Centrifugation was done again, then the supernatant discarded. The resin was poured onto a 0.8 μm membrane in a disposable filter unit (Nalge 450-0080), and washed with 5 volumes of Base Buffer containing 0.2% Lubrol PX. It was then washed with 30 volumes of Base Buffer containing 60 mM imidazole pH 7.5 at 4° C. The protein was eluated with 5 volumes of 25 mM Tris-Cl, 300 mM NaCl, 200 mM imidazole, 10 mM 2-mercaptoethanol, pH 7.5 at 4° C. by tumbling resin with buffer end-over-end, 30 min., 4° C. The resin was captured on a 0.2 μm membrane disposable filter unit (Millipore SCGP U02 RE) and the eluate collected in the reservoir. The eluate was concentrated using a 30 k MWCO centrifugal filter device (Sartorius Vivascience Vivacell 100, VC1022), to 20 ml. It was then dialyzed overnight at 4° C., two times against 2 L of 10% glycerol, 25 mM Tris-Cl, 300 mM NaCl, 0.2 mM EDTA, 0.2 mM DTT, pH 7.5 at 4° C. The protein was filtered using a 0.22 μm disposable filter unit (Millipore SCGP00525). The protein concentration was calculated from absorbance at 280 nm, using 280=0.67 cm-1 mg-1. Yield was 235 mg, total. The protein was stored at −80° C. Human Hormone-Sensitive Lipase (HSL) Enzyme Inhibition Assay:
HSL enzyme activity was measured by a colorimetric assay using 2,3-dimercapto-1-propanol tributyrate (Aldrich, St. Louis, Mo.) as a substrate. Typically, 1.5 mM 2,3-dimercapto-1-propanol tributyrate (DMPT) in 100 mM MOPS, pH 7.2, 0.2 mg/ml fatty acid-free BSA was prepared by sonication at 4° C. to homogenous suspension. Test compounds (2 mM stock in DMSO) were diluted 3 fold in series in DMSO. Compound solutions were diluted 24 fold in 1.5 mM DMPT containing solution and 18 ul per well was added to 384-well microplates (Corning Costar). Twelve microliters per well of human HSL (15 ug/ml) was added and the reaction mixture was incubated at 37° C. for 20 minutes. Six microliters of 12 mM dithio-bis-(2-nitrobenzoic acid) (DTNB) in DMSO plus 1.2% SDS and 0.6% Triton X-100 were added and the mixture was incubated at room temperature for 15 minutes. Product production was monitored by reading absorbance at 405 nm on an Envision Reader (PerkinElmer Life and Analytical Sciences, Shelton, Conn.).

Structure (SMILES)	IC50
CC(C)(O)[C@]1(O)CC[C@]2(CCN(c3ccc(OCC(F)(F)F)cc3)C2=O)CC1 [Example 339, (5α,8α)-8-Hydroxy-8-(1-hydroxy-1-methyl-ethyl)-2-[4-(2,2,2-trifluoro-ethoxy)-phenyl]-2-aza-spiro[4.5]decan-1-one]	120 nM
C[C@@H](Oc1ccc(N2CC[C@]3(CC[C@@](O)(C4CC4)CC3)C2=O)cc1)C(F)(F)F [Example 181a, (5α,8α)-8-Cyclopropyl-8-hydroxy-2-[4-((R)-2,2,2-trifluoro-1-methyl-ethoxy)-phenyl]-2-aza-spiro[4.5]decan-1-one]	20 nM
CCOC[C@]1(O)CC[C@]2(CCN(c3ccc(OCC(F)(F)F)nc3)C2=O)CC1 [Example 247, (5α,8α)-8-Ethoxymethyl-8-hydroxy-2-[6-(2,2,2-trifluoro-ethoxy)-pyridin-3-yl]-2-aza-spiro[4.5]decan-1-one]	70 nM
CC(C)CCOC[C@]1(O)CC[C@]2(CCN(c3ccc(OCC(F)(F)F)cc3)C2=O)CC1 [Example 291, (5α,8α)-8-Hydroxy-8-(3-methyl-butoxymethyl)-2-[4-(2,2,2-trifluoro-ethoxy)-phenyl]-2-aza-spiro[4.5]decan-1-one]	20 nM
COC[C@]1(O)CC[C@@]2(CCN(c3ccc(OC(F)(F)F)cc3)C2=O)CC1 [Example 115, (5α,8β)-8-Hydroxy-8-methoxymethyl-2-(4-trifluoromethoxy-phenyl)-2-aza-spiro[4.5]decan-1-one]	680 nM
COCC#C[C@]1(O)CC[C@]2(CCN(c3ccc(CC(F)(F)F)cc3)C2=O)CC1 [Example 92, (5α,8α)-8-Hydroxy-8-(3-methoxy-prop-1-ynyl)-2-[4-(2,2,2-trifluoro-ethyl)-phenyl]-2-aza-spiro[4.5]decan-1-one]	30 nM
C[C@H](Oc1ccc(N2CC[C@]3(CC[C@@](O)(COCC(F)F)CC3)C2=O)cc1)C(F)(F)F [Example 299, (5α,8α)-8-(2,2-Difluoro-ethoxymethyl)-8-hydroxy-2-[4-((S)-2,2,2-trifluoro-1-methyl-ethoxy)-phenyl]-2-aza-spiro[4.5]decan-1-one]	10 nM
CC(C)OC[C@]1(O)CC[C@]2(CCN(c3ccc(O[C@H](C)C(F)(F)F)cc3)C2=O)CC1 [Example 310, (5α,8α)-8-Hydroxy-8-isopropoxymethyl-2-[4-((R)-2,2,2-trifluoro-1-methyl-ethoxy)-phenyl]-2-aza-spiro[4.5]decan-1-one]	10 nM
CCC(O)[C@H]1CC[C@@]2(CCN(c3ccc(C(C)(C)C)cc3)C2=O)CC1 (stereo partly drawn) [Example 359, (5α,8β)-2-(4-tert-Butyl-phenyl)-8-(1-hydroxy-propyl)-2-aza-spiro[4.5]decan-1-one]	30 nM
CC(C)Oc1ccc(N2CC[C@]3(CC[C@@](O)(C(C)C)CC3)C2=O)cc1 [Example 196, (5α,8α)-8-hydroxy-2-(4-isopropoxyphenyl)-8-isopropyl-2-aza-spiro[4.5]decan-1-one]	10 nM
CC(C)Oc1ccc(N2CC[C@]3(CC[C@@](O)(c4cnnn4C)CC3)C2=O)cc1 [Example 213]	390 nM
CC(C)[C@]1(O)CC[C@@]2(CCN(c3ccc(OCC(F)(F)F)nc3)C2=O)CC1 [Example 109, (5α,8β)-8-Hydroxy-8-isopropyl-2-(6-(2,2,2-trifluoroethoxy)pyridin-3-yl)-2-aza-spiro[4.5]decan-1-one]	2220 nM
CC(F)(F)C(O)c1ccc(N2CC[C@]3(CC[C@@](O)(CCC(F)(F)F)CC3)C2=O)cc1 (stereo partly drawn) [Example 193, (5α,8α)-2-(4-(2,2-difluoro-1-hydroxypropyl)phenyl)-8-hydroxy-8-(3,3,3-trifluoropropyl)-2-aza-spiro[4.5]decan-1-one]	30 nM
CC(C)[C@]1(O)CC[C@@]2(CCN(c3ccc(O[C@H](C)C(F)(F)F)nc3)C2=O)CC1 [Example 151, (5α,8β)-8-Hydroxy-8-isopropyl-2-[6-((R)-2,2,2-trifluoro-1-methyl-ethoxy)pyridin-3-yl]-2-aza-spiro[4.5]decan-1-one]	1850 nM
CCCS(=O)(=O)C[C@]1(O)CC[C@]2(CCN(c3ccc(C(C)(C)C)cc3)C2=O)CC1 [Example 331, (5α,8α)-2-(4-tert-Butyl-phenyl)-8-hydroxy-8-(propane-1-sulfonylmethyl)-2-aza-spiro[4.5]decan-1-one]	12 nM
C=CC[C@]1(O)CC[C@@]2(CCN(c3ccc(O[C@H](C)C(F)(F)F)cc3)C2=O)CC1 [Example 143, (5α,8β)-8-Allyl-8-hydroxy-2-[4-((R)-2,2,2-trifluoro-1-methyl-ethoxy)-phenyl]-2-aza-spiro[4.5]decan-1-one]	1480 nM
CC(C)OC[C@]1(O)CC[C@]2(CCN(c3ccc(OCC(F)(F)F)cc3)C2=O)CC1 [Example 276, (5α,8α)-8-Hydroxy-8-isopropoxymethyl-2-[4-(2,2,2-trifluoro-ethoxy)-phenyl]-2-aza-spiro[4.5]decan-1-one]	10 nM
C[C@@H](Oc1ccc(N2CC[C@]3(CC[C@@](O)(CS(=O)(=O)C(C)(C)C)CC3)C2=O)cn1)C(F)(F)F [Example 326, (5α,8α)-8-Hydroxy-8-(2-methyl-propane-2-sulfonylmethyl)-2-[6-((R)-2,2,2-trifluoro-1-methyl-ethoxy)-pyridin-3-yl]-2-aza-spiro[4.5]decan-1-one]	10 nM
CCC[C@]1(O)CC[C@]2(CCN(c3ccc(OCC(F)(F)F)cc3)C2=O)CC1 [Example 104, 8-Hydroxy-8-propyl-2-[4-(2,2,2-trifluoro-ethoxy)-phenyl]-2-aza-spiro[4.5]decan-1-one]	20 nM
